Assays:
WT pol β = target: T1, WT pol β (Homo sapiens, UniProt P06746); experiment: Single turnover polymerase activity (rapid-quench), WT pol β; format: biochemical; conditions: for Specificity (kpol/KD) / kpol / Kd: templating base C; for Kd: apparent dNTP dissociation constant; for D KD (i/c): KD(incorrect)/KD(correct) / D kpol (c/i): kpol(correct)/kpol(incorrect): dCTP incorrect, dGTP correct
T1 construct: made in house
Protocol: (§1) A solution containing 50 nM DNA and 200 nM polymerase was rapidly mixed with varying concentrations of dNTP at 37 °C in 50 mM Tris pH 8.0, 20 mM NaCl, 10 mM MgCl2, 2 mM DTT and 10% glycerol using a KinTek rapid-quench flow apparatus. Reactions were quenched with EDTA and the product was separated from the initial reactant on a 20% polyacrylamide gel containing 8 M urea. Rate of phosphodiester bond formation (kpol) and the apparent dNTP dissociation constant (KD) were extracted as previously reported ([16]). Fidelity was calculated using the catalytic specificity (kpol/KD) for correct (dGTP) and incorrect (dCTP): (kpol/KD)correct/(kpol/KD) incorrect ([37]).

K289M pol β = target: T2, K289M pol β (Homo sapiens, UniProt P06746, K289M); experiment: Single turnover polymerase activity (rapid-quench), K289M pol β; format: biochemical; conditions: for Specificity (kpol/KD) / kpol / Kd: templating base C; for Kd: apparent dNTP dissociation constant; for D KD (i/c): KD(incorrect)/KD(correct) / D kpol (c/i): kpol(correct)/kpol(incorrect): dCTP incorrect, dGTP correct
T2 construct: made in house
Protocol: as §1

[1] = parameters: method as in earlier work; conditions: pKa4 of the leaving group (β,γ-bridging group modified) ref 19, 22, 23; cited from earlier work
[2] = APC in Control sequence, listed as O
[3] = Control in APC sequence, listed as O

SMILES | Specificity (kpol/KD) (WT pol β; APC in Control sequence) [M⁻¹ s⁻¹] | kpol (WT pol β; APC in Control sequence) [s⁻¹] | Specificity (kpol/KD) (WT pol β; APC sequence) [M⁻¹ s⁻¹] | kpol (WT pol β; APC sequence) [s⁻¹] | Specificity (kpol/KD) (WT pol β; Control in APC sequence) [M⁻¹ s⁻¹] | kpol (WT pol β; Control in APC sequence) [s⁻¹] | Specificity (kpol/KD) (WT pol β; Control sequence) [M⁻¹ s⁻¹] | kpol (WT pol β; Control sequence) [s⁻¹] | Kd (WT pol β; APC in Control sequence) [µM] | Kd (WT pol β; APC sequence) [µM] | Kd (WT pol β; Control in APC sequence) [µM] | Kd (WT pol β; Control sequence) [µM] | Specificity (kpol/KD) (K289M pol β; APC in Control sequence) [M⁻¹ s⁻¹] | kpol (K289M pol β; APC in Control sequence) [s⁻¹] | kpol (K289M pol β; APC sequence) [s⁻¹] | kpol (K289M pol β; Control sequence) [s⁻¹] | Kd (K289M pol β; APC in Control sequence) [µM] | Kd (K289M pol β; APC sequence) [µM] | Kd (K289M pol β; Control in APC sequence) [µM] | Kd (K289M pol β; Control sequence) [µM] | further results
Nc1nc2c(ncn2C2CC(O)C(COP(=O)(O)OP(=O)(O)C(Cl)P(=O)(O)O)O2)c(=O)[nH]1 (mixture of isomers) [CHCl] | 2.9e+06 | 21.7 | 2.6e+06 | 20.3 | 2.1e+06 | 11.9 | 1.18e+07 | 5.90 | 7.5 | 7.8 | 5.6 | 0.5 | 140000 | 1.37 | 0.80 | 1.18 | 10 | 2 | 6.5 | 2.85 | Specificity (kpol/KD) (K289M pol β; APC sequence): 400000 M⁻¹ s⁻¹; Specificity (kpol/KD) (K289M pol β; Control in APC sequence): 160000 M⁻¹ s⁻¹; kpol (K289M pol β; Control in APC sequence): 1.01 s⁻¹; Specificity (kpol/KD) (K289M pol β; Control sequence): 410000 M⁻¹ s⁻¹
Nc1nc2c(ncn2C2CC(O)C(COP(=O)(O)OP(=O)(O)C(F)P(=O)(O)O)O2)c(=O)[nH]1 (mixture of isomers) [CHF] | 4.8e+06 | 25.1 | 4.9e+06 | 36.4 | 9e+06 | 19.9 | 2.4e+06 | 10.2 | 5.2 | 7.5 | 2.2 | 4.2 | 1.31e+06 | 1.36 | 0.90 | 1.50 | 1.04 | 1.6 | 1.2 | 1.3 | Specificity (kpol/KD) (K289M pol β; APC sequence): 560000 M⁻¹ s⁻¹; Specificity (kpol/KD) (K289M pol β; Control in APC sequence): 1.25e+06 M⁻¹ s⁻¹; kpol (K289M pol β; Control in APC sequence): 1.50 s⁻¹; Specificity (kpol/KD) (K289M pol β; Control sequence): 1.15e+06 M⁻¹ s⁻¹
Nc1nc2c(ncn2[C@H]2C[C@H](O)[C@@H](COP(=O)(O)OP(=O)(O)CP(=O)(O)O)O2)c(=O)[nH]1 [CH2] | 900000 | 6.30 | 1.3e+06 | 9.00 | 1.4e+06 | 3.10 | 4.3e+06 | 2.20 | 6.9 | 7.1 | 2.2 | 0.5 | 250000 | 1.17 | 0.70 | 0.58 | 4.75 | 1.7 | 1.6 | 2.2 | Specificity (kpol/KD) (K289M pol β; APC sequence): 410000 M⁻¹ s⁻¹; Specificity (kpol/KD) (K289M pol β; Control in APC sequence): 380000 M⁻¹ s⁻¹; kpol (K289M pol β; Control in APC sequence): 0.61 s⁻¹; Specificity (kpol/KD) (K289M pol β; Control sequence): 260000 M⁻¹ s⁻¹
Nc1ccn([C@H]2C[C@H](O)[C@@H](COP(=O)(O)OP(=O)(O)OP(=O)(O)O)O2)c(=O)n1 [dCTP] | – | 0.04 | – | 0.22 | – | 0.03 | – | 0.07 | 389 | 340 | 456 | 1280 | – | 0.05 | 0.05 | 0.02 | 766 | 267 | 758 | 778 | D KD (i/c): KD(incorrect)/KD(correct) (WT pol β; APC in Control sequence): 111; D KD (i/c): KD(incorrect)/KD(correct) (WT pol β; APC sequence): 148; D KD (i/c): KD(incorrect)/KD(correct) (WT pol β; Control in APC sequence): 268; D KD (i/c): KD(incorrect)/KD(correct) (WT pol β; Control sequence): 639; D KD (i/c): KD(incorrect)/KD(correct) (K289M pol β; APC in Control sequence): 511; D KD (i/c): KD(incorrect)/KD(correct) (K289M pol β; APC sequence): 205; kpol (K289M pol β; Control in APC sequence): 0.02 s⁻¹; D KD (i/c): KD(incorrect)/KD(correct) (K289M pol β; Control in APC sequence): 758; D KD (i/c): KD(incorrect)/KD(correct) (K289M pol β; Control sequence): 778
Nc1nc2c(ncn2[C@H]2C[C@H](O)[C@@H](COP(=O)(O)OP(=O)(O)OP(=O)(O)O)O2)c(=O)[nH]1 [dGTP] | 8.1e+06 | 28.5 | 1.54e+07 | 35.5 | 1.3e+07 | 22.1 | 6.3e+06 | 12.6 | 3.5 | 2.3 | 1.7 | 2 | 1e+06 | 1.50 | 0.90 | 1.52 | 1.5 | 1.3 | 1 | 1 | D kpol (c/i): kpol(correct)/kpol(incorrect) (WT pol β; APC in Control sequence): 750; D kpol (c/i): kpol(correct)/kpol(incorrect) (WT pol β; APC sequence): 161; D kpol (c/i): kpol(correct)/kpol(incorrect) (WT pol β; Control in APC sequence): 737; D kpol (c/i): kpol(correct)/kpol(incorrect) (WT pol β; Control sequence): 194; kpol (K289M pol β; [2]): 1.53 s⁻¹; D kpol (c/i): kpol(correct)/kpol(incorrect) (K289M pol β; APC in Control sequence): 30; Specificity (kpol/KD) (K289M pol β; APC sequence): 690000 M⁻¹ s⁻¹; D kpol (c/i): kpol(correct)/kpol(incorrect) (K289M pol β; APC sequence): 18; Specificity (kpol/KD) (K289M pol β; Control in APC sequence): 1.37e+06 M⁻¹ s⁻¹; kpol (K289M pol β; [3]): 1.42 s⁻¹; D kpol (c/i): kpol(correct)/kpol(incorrect) (K289M pol β; Control in APC sequence): 74; Specificity (kpol/KD) (K289M pol β; Control sequence): 1.54e+06 M⁻¹ s⁻¹; D kpol (c/i): kpol(correct)/kpol(incorrect) (K289M pol β; Control sequence): 76; Kd (K289M pol β; [2]): 1.53 µM; Kd (K289M pol β; [3]): 1.04 µM; Kd (K289M pol β; Control sequence, listed as O): 0.99 µM; pKa4 [1]: 8.9
